What was measured:
Test in all cases: KINOMEscan competition binding
Conditions in all cases: compound 10.0 µM
CDK7 (human) = CDK7 (human) (UniProt P50613)
[1] = system: FLT3 (human), P36888 [D835H]
MAPK4 (human) = MAPK4 (human) (UniProt P31152)
CDC42BPA (human) = CDC42BPA (human) (UniProt Q5VT25)
ZAP70 (human) = ZAP70 (human) (UniProt P43403)
RPS6KA4 KD1 (human) = RPS6KA4 KD1 (human) (UniProt O75676)
EPHA1 (human) = EPHA1 (human) (UniProt P21709)
DYRK2 (human) = DYRK2 (human) (UniProt Q92630)
WEE1 (human) = WEE1 (human) (UniProt P30291)
IKBKE (human) = IKBKE (human) (UniProt Q14164)
TNK2 (human) = TNK2 (human) (UniProt Q07912)
Sequence of TNK2 (human) (Q07912 whole entry, looked up): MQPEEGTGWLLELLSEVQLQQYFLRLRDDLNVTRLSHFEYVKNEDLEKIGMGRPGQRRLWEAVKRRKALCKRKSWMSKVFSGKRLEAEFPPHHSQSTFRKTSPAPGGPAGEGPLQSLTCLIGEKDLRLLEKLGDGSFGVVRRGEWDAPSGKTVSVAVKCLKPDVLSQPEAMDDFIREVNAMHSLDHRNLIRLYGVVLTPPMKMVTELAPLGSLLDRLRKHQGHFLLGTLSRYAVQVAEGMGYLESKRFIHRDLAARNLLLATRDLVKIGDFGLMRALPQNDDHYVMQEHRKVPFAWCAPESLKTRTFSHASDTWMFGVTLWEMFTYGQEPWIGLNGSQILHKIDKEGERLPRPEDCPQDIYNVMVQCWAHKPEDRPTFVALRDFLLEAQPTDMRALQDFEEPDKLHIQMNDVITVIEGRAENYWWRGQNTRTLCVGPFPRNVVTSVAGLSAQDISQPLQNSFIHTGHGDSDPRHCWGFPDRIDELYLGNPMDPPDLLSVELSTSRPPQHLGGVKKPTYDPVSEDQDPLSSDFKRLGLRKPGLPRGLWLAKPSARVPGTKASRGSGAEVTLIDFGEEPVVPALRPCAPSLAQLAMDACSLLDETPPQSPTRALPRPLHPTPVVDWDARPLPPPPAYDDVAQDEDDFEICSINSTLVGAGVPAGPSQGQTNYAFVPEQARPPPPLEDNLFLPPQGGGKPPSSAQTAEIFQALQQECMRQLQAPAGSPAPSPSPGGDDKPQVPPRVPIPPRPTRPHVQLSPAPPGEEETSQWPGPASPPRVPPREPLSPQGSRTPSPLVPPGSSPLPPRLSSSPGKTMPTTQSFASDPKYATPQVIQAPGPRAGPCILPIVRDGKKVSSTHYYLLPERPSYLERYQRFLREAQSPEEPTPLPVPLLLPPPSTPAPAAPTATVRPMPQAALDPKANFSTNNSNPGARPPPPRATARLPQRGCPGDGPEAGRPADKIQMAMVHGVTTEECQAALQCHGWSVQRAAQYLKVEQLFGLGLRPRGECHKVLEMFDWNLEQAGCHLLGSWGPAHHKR

MAPK3 (human) = MAPK3 (human) (UniProt P27361)
CAMKK2 (human) = CAMKK2 (human) (UniProt Q96RR4)
TTK (human) = TTK (human) (UniProt P33981)
LCK (human) = LCK (human) (UniProt P06239)
Sequence of LCK (human) (P06239 whole entry, looked up): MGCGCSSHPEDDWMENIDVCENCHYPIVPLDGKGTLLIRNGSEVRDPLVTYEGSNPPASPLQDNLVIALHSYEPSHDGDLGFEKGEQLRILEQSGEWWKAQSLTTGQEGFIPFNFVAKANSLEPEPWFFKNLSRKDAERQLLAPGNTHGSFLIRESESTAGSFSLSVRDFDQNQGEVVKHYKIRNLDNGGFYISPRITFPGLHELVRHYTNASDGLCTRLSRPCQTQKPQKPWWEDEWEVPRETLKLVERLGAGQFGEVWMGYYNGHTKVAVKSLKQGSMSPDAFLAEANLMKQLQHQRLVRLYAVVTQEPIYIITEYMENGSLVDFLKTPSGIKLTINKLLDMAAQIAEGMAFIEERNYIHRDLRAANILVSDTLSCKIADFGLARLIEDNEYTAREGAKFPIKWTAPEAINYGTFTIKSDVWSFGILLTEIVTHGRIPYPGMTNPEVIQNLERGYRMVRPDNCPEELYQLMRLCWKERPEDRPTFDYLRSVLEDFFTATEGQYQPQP

PIM1 (human) = PIM1 (human) (UniProt P11309)
PLK4 (human) = PLK4 (human) (UniProt O00444)
GRK4 (human) = GRK4 (human) (UniProt P32298)
ITK (human) = ITK (human) (UniProt Q08881)
NEK11 (human) = NEK11 (human) (UniProt Q8NG66)
BTK (human) = BTK (human) (UniProt Q06187)
Sequence of BTK (human) (Q06187 whole entry, looked up): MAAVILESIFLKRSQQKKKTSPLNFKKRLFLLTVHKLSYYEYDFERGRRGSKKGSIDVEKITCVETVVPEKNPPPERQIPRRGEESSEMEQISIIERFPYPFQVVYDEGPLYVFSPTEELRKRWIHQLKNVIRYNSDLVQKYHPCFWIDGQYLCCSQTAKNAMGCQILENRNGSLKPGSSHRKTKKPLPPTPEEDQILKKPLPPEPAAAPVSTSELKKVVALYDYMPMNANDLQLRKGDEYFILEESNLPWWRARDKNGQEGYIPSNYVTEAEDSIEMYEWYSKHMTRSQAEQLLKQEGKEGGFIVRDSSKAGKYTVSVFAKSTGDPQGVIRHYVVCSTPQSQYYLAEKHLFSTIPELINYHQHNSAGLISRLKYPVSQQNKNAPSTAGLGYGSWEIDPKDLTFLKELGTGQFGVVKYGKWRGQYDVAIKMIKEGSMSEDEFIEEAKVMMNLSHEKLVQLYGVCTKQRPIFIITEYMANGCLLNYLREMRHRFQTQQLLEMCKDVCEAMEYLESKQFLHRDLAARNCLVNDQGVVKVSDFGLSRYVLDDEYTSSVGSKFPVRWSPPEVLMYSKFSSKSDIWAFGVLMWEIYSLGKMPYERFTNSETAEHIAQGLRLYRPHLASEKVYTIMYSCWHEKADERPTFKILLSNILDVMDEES

FLT3 (human) = FLT3 (human) (UniProt P36888)
MELK (human) = MELK (human) (UniProt Q14680)
MAP3K7 (human) = MAP3K7 (human) (UniProt O43318)
PRKG1 (human) = PRKG1 (human) (UniProt Q13976)
Sequence of PRKG1 (human) (Q13976 whole entry, looked up): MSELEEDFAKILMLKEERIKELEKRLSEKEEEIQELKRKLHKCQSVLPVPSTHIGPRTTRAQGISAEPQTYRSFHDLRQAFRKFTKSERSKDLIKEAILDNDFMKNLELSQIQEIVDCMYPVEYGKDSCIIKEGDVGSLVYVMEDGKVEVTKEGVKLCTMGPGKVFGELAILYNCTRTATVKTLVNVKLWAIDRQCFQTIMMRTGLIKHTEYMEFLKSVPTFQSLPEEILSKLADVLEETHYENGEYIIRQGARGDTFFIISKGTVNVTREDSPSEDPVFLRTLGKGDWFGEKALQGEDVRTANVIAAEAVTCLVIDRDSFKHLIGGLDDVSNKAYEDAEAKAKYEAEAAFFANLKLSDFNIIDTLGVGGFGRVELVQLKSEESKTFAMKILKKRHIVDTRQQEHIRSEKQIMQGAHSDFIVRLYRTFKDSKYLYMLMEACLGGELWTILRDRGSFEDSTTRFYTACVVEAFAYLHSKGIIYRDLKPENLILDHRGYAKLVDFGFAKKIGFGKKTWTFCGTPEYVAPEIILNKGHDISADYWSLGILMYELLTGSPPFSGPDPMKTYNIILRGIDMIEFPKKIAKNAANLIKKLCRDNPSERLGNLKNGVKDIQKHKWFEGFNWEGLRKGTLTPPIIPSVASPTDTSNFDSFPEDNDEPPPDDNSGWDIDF

CDK5 (human) = CDK5 (human) (UniProt Q00535)
RIPK4 (human) = RIPK4 (human) (UniProt P57078)
NIM1 (human) = NIM1 (human) (UniProt Q8IY84)
Sequence of NIM1 (human) (Q8IY84 whole entry, looked up): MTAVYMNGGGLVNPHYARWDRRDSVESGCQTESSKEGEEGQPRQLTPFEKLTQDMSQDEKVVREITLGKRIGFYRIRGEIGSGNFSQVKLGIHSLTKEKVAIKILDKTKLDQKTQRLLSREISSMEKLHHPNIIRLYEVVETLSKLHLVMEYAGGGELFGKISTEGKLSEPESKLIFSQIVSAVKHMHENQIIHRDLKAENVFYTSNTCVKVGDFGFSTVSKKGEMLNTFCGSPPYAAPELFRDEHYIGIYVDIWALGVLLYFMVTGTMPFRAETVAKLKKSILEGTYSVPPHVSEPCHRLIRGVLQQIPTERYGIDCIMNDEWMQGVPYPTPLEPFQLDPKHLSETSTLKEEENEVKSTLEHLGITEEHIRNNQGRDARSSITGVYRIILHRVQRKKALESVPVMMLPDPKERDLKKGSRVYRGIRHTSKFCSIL

BRSK2 (human) = BRSK2 (human) (UniProt Q8IWQ3)
PIK3CB (human) = PIK3CB (human) (UniProt P42338)
Sequence of PIK3CB (human) (P42338 whole entry, looked up): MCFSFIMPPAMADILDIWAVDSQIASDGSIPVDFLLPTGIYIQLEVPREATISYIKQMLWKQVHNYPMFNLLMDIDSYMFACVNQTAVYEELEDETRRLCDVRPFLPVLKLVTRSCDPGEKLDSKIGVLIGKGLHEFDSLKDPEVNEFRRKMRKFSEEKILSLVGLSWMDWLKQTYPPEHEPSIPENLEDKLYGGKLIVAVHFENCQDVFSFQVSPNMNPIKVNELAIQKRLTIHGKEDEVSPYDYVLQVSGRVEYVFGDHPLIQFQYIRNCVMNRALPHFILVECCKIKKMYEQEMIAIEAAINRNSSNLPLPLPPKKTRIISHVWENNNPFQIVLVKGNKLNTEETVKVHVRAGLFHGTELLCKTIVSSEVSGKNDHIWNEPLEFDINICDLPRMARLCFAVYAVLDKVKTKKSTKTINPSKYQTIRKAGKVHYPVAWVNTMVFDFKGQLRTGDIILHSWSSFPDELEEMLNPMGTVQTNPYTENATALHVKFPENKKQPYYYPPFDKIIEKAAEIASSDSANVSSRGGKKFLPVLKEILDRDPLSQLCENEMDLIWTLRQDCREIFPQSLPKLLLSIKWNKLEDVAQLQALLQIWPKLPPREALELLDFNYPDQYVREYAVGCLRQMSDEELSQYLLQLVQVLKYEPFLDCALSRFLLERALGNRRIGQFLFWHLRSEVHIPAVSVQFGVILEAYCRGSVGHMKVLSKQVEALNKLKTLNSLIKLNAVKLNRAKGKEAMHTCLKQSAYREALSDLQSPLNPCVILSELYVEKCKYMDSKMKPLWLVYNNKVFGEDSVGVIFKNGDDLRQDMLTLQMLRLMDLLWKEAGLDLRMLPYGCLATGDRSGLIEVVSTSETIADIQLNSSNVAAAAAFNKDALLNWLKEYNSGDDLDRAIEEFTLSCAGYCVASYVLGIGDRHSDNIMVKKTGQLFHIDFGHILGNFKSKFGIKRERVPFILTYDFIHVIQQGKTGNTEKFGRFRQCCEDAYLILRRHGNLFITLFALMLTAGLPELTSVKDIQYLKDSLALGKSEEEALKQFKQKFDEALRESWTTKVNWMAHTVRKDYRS

AXL (human) = AXL (human) (UniProt P30530)
[2] = system: RET (human), P07949 [M918T]
AKT3 (human) = AKT3 (human) (UniProt Q9Y243)
LIMK1 (human) = LIMK1 (human) (UniProt P53667)
MAPK8 (human) = MAPK8 (human) (UniProt P45983)
CDK2 (human) = CDK2 (human) (UniProt P24941)
NEK4 (human) = NEK4 (human) (UniProt P51957)
DDR1 (human) = DDR1 (human) (UniProt Q08345)
MARK4 (human) = MARK4 (human) (UniProt Q96L34)
EPHB4 (human) = EPHB4 (human) (UniProt P54760)
ERN1 (human) = ERN1 (human) (UniProt O75460)

Sequence of DYRK2 (human) (Q92630 whole entry, looked up): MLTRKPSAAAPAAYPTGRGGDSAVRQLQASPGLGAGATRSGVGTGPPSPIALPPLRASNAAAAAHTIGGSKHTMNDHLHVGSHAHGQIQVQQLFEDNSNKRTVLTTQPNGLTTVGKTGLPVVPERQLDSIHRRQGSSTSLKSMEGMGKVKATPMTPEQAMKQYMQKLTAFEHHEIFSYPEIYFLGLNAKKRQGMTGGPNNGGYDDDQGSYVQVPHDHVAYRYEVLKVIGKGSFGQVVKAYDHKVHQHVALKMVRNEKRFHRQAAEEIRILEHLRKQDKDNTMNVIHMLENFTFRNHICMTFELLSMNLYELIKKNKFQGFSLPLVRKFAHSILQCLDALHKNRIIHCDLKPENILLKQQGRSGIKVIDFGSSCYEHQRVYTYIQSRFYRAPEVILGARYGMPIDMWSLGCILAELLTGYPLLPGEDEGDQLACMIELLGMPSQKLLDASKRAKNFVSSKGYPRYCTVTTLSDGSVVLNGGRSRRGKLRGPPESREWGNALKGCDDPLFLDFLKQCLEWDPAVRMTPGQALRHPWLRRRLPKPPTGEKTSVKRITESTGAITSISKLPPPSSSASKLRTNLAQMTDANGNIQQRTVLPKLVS

## C=CC(=O)Nc1cc(-n2c(=O)ccc3cnc4ccc(-c5cn[nH]c5)cc4c32)ccc1C
CDK7 (human)
  kinase still bound, per cent of control: 3.8%
[1]
  kinase still bound, per cent of control: 14%
MAPK4 (human)
  kinase still bound, per cent of control: 100%
CDC42BPA (human)
  kinase still bound, per cent of control: 97%
ZAP70 (human)
  kinase still bound, per cent of control: 48%
RPS6KA4 KD1 (human)
  kinase still bound, per cent of control: 100%
EPHA1 (human)
  kinase still bound, per cent of control: 94%
DYRK2 (human)
  kinase still bound, per cent of control: 0.6%
WEE1 (human)
  kinase still bound, per cent of control: 100%
IKBKE (human)
  kinase still bound, per cent of control: 100%
TNK2 (human)
  kinase still bound, per cent of control: 100%
MAPK3 (human)
  kinase still bound, per cent of control: 100%
CAMKK2 (human)
  kinase still bound, per cent of control: 49%
TTK (human)
  kinase still bound, per cent of control: 21%
LCK (human)
  kinase still bound, per cent of control: 64%
PIM1 (human)
  kinase still bound, per cent of control: 70%
PLK4 (human)
  kinase still bound, per cent of control: 66%
GRK4 (human)
  kinase still bound, per cent of control: 84%
ITK (human)
  kinase still bound, per cent of control: 29%
NEK11 (human)
  kinase still bound, per cent of control: 100%
BTK (human)
  kinase still bound, per cent of control: 0.2%
FLT3 (human)
  kinase still bound, per cent of control: 6.2%
MELK (human)
  kinase still bound, per cent of control: 43%
MAP3K7 (human)
  kinase still bound, per cent of control: 0.35%
PRKG1 (human)
  kinase still bound, per cent of control: 91%
CDK5 (human)
  kinase still bound, per cent of control: 84%
RIPK4 (human)
  kinase still bound, per cent of control: 67%
NIM1 (human)
  kinase still bound, per cent of control: 89%
BRSK2 (human)
  kinase still bound, per cent of control: 67%
PIK3CB (human)
  kinase still bound, per cent of control: 62%
AXL (human)
  kinase still bound, per cent of control: 100%
[2]
  kinase still bound, per cent of control: 51%
AKT3 (human)
  kinase still bound, per cent of control: 100%
LIMK1 (human)
  kinase still bound, per cent of control: 100%
MAPK8 (human)
  kinase still bound, per cent of control: 1.9%
CDK2 (human)
  kinase still bound, per cent of control: 84%
NEK4 (human)
  kinase still bound, per cent of control: 83%
DDR1 (human)
  kinase still bound, per cent of control: 67%
MARK4 (human)
  kinase still bound, per cent of control: 64%
EPHB4 (human)
  kinase still bound, per cent of control: 100%
ERN1 (human)
  kinase still bound, per cent of control: 50%

## O=c1cc(N2CCOCC2)oc2c(-c3cccc4c3sc3ccccc34)cccc12
CDK7 (human)
  kinase still bound, per cent of control: 100%
[1]
  kinase still bound, per cent of control: 92%
MAPK4 (human)
  kinase still bound, per cent of control: 100%
CDC42BPA (human)
  kinase still bound, per cent of control: 94%
ZAP70 (human)
  kinase still bound, per cent of control: 100%
RPS6KA4 KD1 (human)
  kinase still bound, per cent of control: 79%
EPHA1 (human)
  kinase still bound, per cent of control: 92%
DYRK2 (human)
  kinase still bound, per cent of control: 100%
WEE1 (human)
  kinase still bound, per cent of control: 100%
IKBKE (human)
  kinase still bound, per cent of control: 100%
TNK2 (human)
  kinase still bound, per cent of control: 97%
MAPK3 (human)
  kinase still bound, per cent of control: 100%
CAMKK2 (human)
  kinase still bound, per cent of control: 88%
TTK (human)
  kinase still bound, per cent of control: 100%
LCK (human)
  kinase still bound, per cent of control: 90%
PIM1 (human)
  kinase still bound, per cent of control: 62%
PLK4 (human)
  kinase still bound, per cent of control: 90%
GRK4 (human)
  kinase still bound, per cent of control: 100%
ITK (human)
  kinase still bound, per cent of control: 100%
NEK11 (human)
  kinase still bound, per cent of control: 100%
BTK (human)
  kinase still bound, per cent of control: 100%
FLT3 (human)
  kinase still bound, per cent of control: 100%
MELK (human)
  kinase still bound, per cent of control: 100%
MAP3K7 (human)
  kinase still bound, per cent of control: 100%
PRKG1 (human)
  kinase still bound, per cent of control: 100%
CDK5 (human)
  kinase still bound, per cent of control: 100%
RIPK4 (human)
  kinase still bound, per cent of control: 100%
NIM1 (human)
  kinase still bound, per cent of control: 100%
BRSK2 (human)
  kinase still bound, per cent of control: 100%
PIK3CB (human)
  kinase still bound, per cent of control: 0%
AXL (human)
  kinase still bound, per cent of control: 100%
[2]
  kinase still bound, per cent of control: 98%
AKT3 (human)
  kinase still bound, per cent of control: 98%
LIMK1 (human)
  kinase still bound, per cent of control: 100%
MAPK8 (human)
  kinase still bound, per cent of control: 88%
CDK2 (human)
  kinase still bound, per cent of control: 75%
NEK4 (human)
  kinase still bound, per cent of control: 100%
DDR1 (human)
  kinase still bound, per cent of control: 100%
MARK4 (human)
  kinase still bound, per cent of control: 100%
EPHB4 (human)
  kinase still bound, per cent of control: 87%
ERN1 (human)
  kinase still bound, per cent of control: 93%
